The nature of the series: Solubility in water.

Each structure is given as a SMILES string.

`CC(C)NO` [NiPHA, N-isopropylhydroxylamine] showed a Solubility in water of approximately 15 wt. %. Regarding `CCN(O)CC` [DEHA, diethylhydroxylamine], the Solubility in water is recorded as approximately 85 wt. %.
